Values belong to the compound of their own block, whether it stands above or below them.
Columns and labels:
[1] = system: PC3 tumors; assay: microPET imaging in PC3 tumor-bearing mice; type: in vivo; details: ROI analysis
[2] = system: rSCC-61 tumors; assay: Post-PET biodistribution, rSCC-61 tumor-bearing mice; type: in vivo
Description: Subsequently, post-PET biodistribution was performed in the same SCC-61 or rSCC-61 tumor-bearing mice injected with [^18F]KS1 (FIG. 16). […] High kidney and liver uptake were common with [^18F]radiotracer's distribution at 30 min post-injection.

[3] = system: PC3 cell line; assay: MTT cytotoxicity IC50 assay, PC3; type: cell-based, human; details: Homo sapiens
Description: The cells were seeded at density 5×10^3 cells/well. After 24 h pre-incubation period, cells were treated with 0.01 mM to 2.0 mM of freshly prepared KS1 and KS2 along with ascorbate (n=3) for 48 h. 0.2% of DMSO served as vehicle control. After 48 h, the solutions were removed from all plates and MTT assays performed following the published protocols. IC50 values are presented as mean±SD from at least three independent experiments.
There is growing evidence for a therapeutic role of ascorbate against several cancers (Creagan et al., Failure of High-Dose Vitamin C (Ascorbic Acid) Therapy to Benefit Patients with Advanced Cancer. New England Journal of Medicine 1979, 301 (13), 687-690; Chen et al., Pharmacologic ascorbic acid concentrations selectively kill cancer cells: action as a pro-drug to deliver hydrogen peroxide to tissues. Proceedings of the National Academy of Sciences of the United States of America 2005, 102 (38), 13604-13609; Prasad et al., High Doses of Multiple Antioxidant Vitamins: Essential Ingredients in Improving the Efficacy of Standard Cancer Therapy. Journal of the American College of Nutrition 1999, 18 (1), 13-25). Pharmacologic doses of ascorbate (oral and/or intravenous) could increase the effectiveness of cancer chemotherapy in many solid cancer therapies (López-Lizaro, Dual role of hydrogen peroxide in cancer: Possible relevance to cancer chemoprevention and therapy. Cancer Letters 2007, 252 (1), 1-8; Li et al., New Developments and Novel Therapeutic Perspectives for Vitamin C. The Journal of Nutrition 2007, 137 (10), 2171-2184; Klimant et al., Intravenous vitamin C in the supportive care of cancer patients: a review and rational approach. Current Oncology 2018, 25 (2), 139-148. The primary objective of this experiment was to determine the cytotoxic effects of KS1 at pharmacological concentrations. Cancer cell lines were selected based on their high ROS implications. […] These cell lines have been studied extensively with ascorbic acid treatments (Schoenfeld et al., O(2)(·−) and H(2)O(2)-Mediated Disruption of Fe Metabolism Causes the Differential Susceptibility of NSCLC and GBM Cancer Cells to Pharmacological Ascorbate. Cancer Cell 2017, 31 (4), 487-500.e8; Chen et al., Modulators of Redox Metabolism in Head and Neck Cancer. Antioxidants & Redox Signaling 2017, 29 (16), 1660-1690; Khandrika et al., Oxidative stress in prostate cancer. Cancer Lett 2009, 282 (2), 125-136.

[4] = system: SCC-61 and PC3 cell lines; assay: DCFDA intracellular ROS detection assay; type: cell-based, human
Text: For this, we used dichlorofluorescin diacetate (DCFDA) intracellular ROS detection assay kit and followed manufacture recommended protocol (ZHELEV et al., Docosahexaenoic Acid Sensitizes Leukemia Lymphocytes to Barasertib and Everolimus by ROS-dependent Mechanism Without Affecting the Level of ROS and Viability of Normal Lymphocytes. Anticancer Research 2016, 36 (4), 1673-1682). We studied two patient-derived tumor cell lines: SCC-61, […], and PC3, prostate cancer cell line. The maximum allowed mass for a typical clinical PET radiotracer is <100 μM (Schwarz et al., Radiochemistry and radiopharmacology. LIC-Nuclear Medicine and PET/CT: Technology and Techniques 2016, 11, 77), so we chose 10-100 μM as our concentration range for tracer-level assays. The lowest reported pharmacologic dose for ascorbate is 2.0 mM (Levine et al., Vitamin C: a concentration-function approach yields pharmacology and therapeutic discoveries. Adv Nutr 2011, 2 (2), 78-88), so we chose this dose for our pharmacological assays. We chose the ligand incubation times based on the maximum tracer uptake time (˜2 h) for a typical [^18F]-based PET radiotracer injection (Schlyer, PET tracers and radiochemistry. ANNALS-ACADEMY OF MEDICINE SINGAPORE 2004, 33 (2), 146-154).
Pharmacologic doses of ascorbate generates ROS, including H2O2 and trace amounts of labile iron extracellularly and/or intracellularly (Nauman et al., Systematic Review of Intravenous Ascorbate in Cancer Clinical Trials. Antioxidants (Basel) 2018, 7 (7), 89). We performed the same DCFDA assay with KS1 and ascorbate at pharmacological doses of 2 mM for 7 h in both SCC-61 and PC3 cell lines. ROS production was analyzed and reported (FIG. 11) using the similar measurements as above. Ligand specificity is commonly determined by pretreating the cells with high concentrations of blockers. We used superoxide dismutase (SOD), an enzyme that selectively suppresses accumulation of superoxide peroxide anions (Bielski et al., Chemistry of ascorbic acid radicals. in Ascorbic Acid: Chemistry, Metabolism, and Uses. Chapter 1982, 4, 81-100).

- target (tumor) to non-target (muscle) ratio [2]: 4.11
SMILES: O=C1O/C(=C/CCl)C(O)=C1OCc1ccc(OCC[18F])cc1 [[^18F]KS1]
- tumor uptake with nonradioactive KS1 pretreatment, lower than baseline ([1]; KS1 15 mg/kg 45 min before tracer): ~3 fold
- tumor uptake on mPET scans ([1]; baseline): high tumor uptake

SMILES: O=C1O/C(=C/CCl)C(O)=C1OCc1ccc(OCCF)cc1 [KS1, (E)-5-(2-chloroethylidene)-3-(4-(2-fluoroethoxy)benzyloxy)-4-hydroxyfuran-2(5H)-one]
- IC50 ([3]; PC-3, Example 7, 48 h): 311 µM
- IC50 ([3]; PC-3, Example 13): 1010 µM
- ROS generation (DCFDA fluorescence) ([4]; 10 μM and 100 μM, SCC-61 and PC3): did not generate ROS
- fluorescence intensity (ROS generation) at pharmacological dose ([4]; 2 mM, 7 h, compared to 100 μM): increased significantly
- increased intensity subdued with SOD addition ([4]; 2 mM, SOD blocker): ~3 fold
